This series can be described thus: gradient 5% acetonitrile 3 min, to 50% in 2 min, to 85% in 15 min, held 3 min, 100 µL/min. The following applies: column: Zorbax Extend-C18 2.1 x 50 mm; eluents: water / acetonitrile, 0.1% formic acid. The gist of the method: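 In both positive and negative ionization mode, a quadrupole time-of-flight mass spectrometer coupled to HPLC analyzed pure standards run in mixtures of ~100 molecules. The Zorbax Extend-C18 column (2.1 × 50 mm, 1.8 μm) was operated at 100 μL/min with water and acetonitrile, each containing 0.1% formic acid. The dead volume was 40 μL and the dwell volume 900 μL. Retention time came from adduct peaks that were computationally picked and individually inspected by hand.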
As for `CCC(=O)N1c2ccc(S(=O)(=O)N3CCCCC3)cc2CC1C(=O)NCc1ccc(Cl)cc1` (stereo not drawn), the RP-LC retention time came to 924 s. Regarding `CC(C)CN1C(=O)c2ccccc2C(C(=O)NCCCN2CCOCC2)C1c1cccs1` (stereo not drawn), the RP-LC retention time came to 644 s. For `Cc1ccc(-c2cc(OCC(N)=O)c3cc(NC(=O)COc4ccccc4)ccc3n2)cc1`, the RP-LC retention time worked out at 700 s. For the compound `Cn1cc(C(CNC(=O)Nc2ccccc2Cl)c2cccnc2)c2ccccc21` (stereo not drawn), the RP-LC retention time came out at 726 s. Compound `COc1ccc(N2C(=O)C3N=NN(c4cccc(OC)c4)C3C2=O)cc1` (stereo not drawn) had an RP-LC retention time of 905 s. `CCc1cccc(NC(=O)N2CCc3cn(CC)c4cccc(c34)C2)c1` gave an RP-LC retention time of 1050 s.

Regarding `O=C(Cc1cccs1)NC1CCN(c2cc(-c3ccccc3)[nH]n2)C1` (stereo not drawn), the RP-LC retention time is 673 s. As for `Cc1cc(OCC(=O)N[C@H](C(=O)O)C(C)C)c2c3c(c(=O)oc2c1)CCCC3`, the figure is 837 s; as for `Cc1noc(-c2cccc(OC3CN(C(=O)CN4C(=O)CCC4=O)C3)c2)n1`, 762 s.

In the case of `COCc1nc2nccc(-c3ccc(OC)cc3F)n2n1`, the RP-LC retention time worked out at 711 s. Compound `CCCOc1nc2ccccc2nc1N1CCCC(C(=O)Nc2cccc(OC)c2)C1` (stereo not drawn) showed an RP-LC retention time of 1260 s. As for `O=C(Cc1nnc2cc(-c3nc(C4CC4)no3)ccn12)N1CCc2ccccc2C1`, the figure is 780 s; as for `CC1CCN(c2ccc(-c3noc(CNC(=O)c4cccs4)n3)cc2)CC1`, 993 s; as for `CN(Cc1nc2cc(C(=O)N3CCCC3)ccc2n1C)C(=O)Nc1ccc(Br)cc1F`, 659 s.

`O=C(CN1C(=O)COc2ccc(C(=O)N3CCc4ccccc43)cc21)N1CCCC1` returned an RP-LC retention time of 760 s. With `CN1C(=O)c2cc(S(=O)(=O)Nc3ccc(F)c(F)c3)ccc2Oc2cccnc21`, the RP-LC retention time was 910 s. `O=C(CCn1cnc2cc(-c3noc(-c4ccc(F)cc4)n3)ccc21)N1CCCC1` had an RP-LC retention time of 771 s.

Regarding `CC1=C(c2ccc(C)cc2)S(=O)(=O)N=C1N1CCC(NC(=O)c2ccoc2)CC1`, the RP-LC retention time was found to be 805 s. The compound `CCOC(=O)c1nc(N2CCCC(C)C2)c2ccccc2n1` (stereo not drawn) returned an RP-LC retention time of 759 s. In turn, `Cc1c(Cl)cccc1NC(=O)CSc1nnc2c3cc(-c4ccc(F)cc4)nn3ccn12` returned an RP-LC retention time of 936 s. The figure for `CC(C)Cn1c(CC2CCN(C(=O)COc3ccccc3)C2)nc2cccnc21` (stereo not drawn) is 672 s; for `CCOC(=O)C1C(=O)C(C(=O)OCC)C(c2ccccc2)NC1c1ccccc1` (stereo not drawn) it is 832 s; for `O=C(Nc1c(-c2ccccc2)nc2ccccn12)c1ccc([N+](=O)[O-])cc1` it is 654 s. Consider `CC(C)(C)c1ccc(O)c(CN(Cc2cc(C(C)(C)C)ccc2O)C2CCCCC2)c1`, for which the RP-LC retention time was 1020 s. `COc1cc(-c2nc3ncccn3c2Nc2ccc(C)c(Cl)c2)ccc1O` displayed an RP-LC retention time of 704 s. On to `COC(=O)c1c(C)[nH]c(C(=O)N2CCC(CC(=O)NCC3CCCO3)CC2)c1C` (stereo not drawn), for which the RP-LC retention time stood at 632 s.

As for `CCCNC(=O)C1CCCN(c2ccc(SCC(=O)Nc3cccc(Cl)c3)nn2)C1` (stereo not drawn), the RP-LC retention time came to 683 s. On to `O=c1ccc(N2CCCC(NS(=O)(=O)c3ccc(F)c(Cl)c3)C2)n[nH]1` (stereo not drawn), for which the RP-LC retention time was determined as 706 s. The figure for `O=C(Nc1nnc(C2CC(=O)N(c3ccc(F)cc3)C2)o1)c1cccc(Cl)c1` (stereo not drawn) is 750 s. Regarding `NC(=O)Cc1ccc(NS(=O)(=O)/C=C/c2ccccc2)cc1`, the RP-LC retention time came out at 650 s. On to `COc1ccc(N2CCN(c3nc(C(=O)NCCN4CCCCC4)cs3)CC2)cc1`, for which the RP-LC retention time amounted to 642 s. Take `COCc1nnc([C@@H]2CC(F)(F)CN2Cc2ccc(OC)cc2)o1`: the RP-LC retention time came to 837 s. Consider `CCNCc1ccc(-c2cc(Cl)ccc2Cl)o1`, for which the RP-LC retention time turned out to be 686 s. Consider `CCNc1cc(N2CCCC(CCC(=O)NC(CC)CC)C2)ncn1` (stereo not drawn), for which the RP-LC retention time turned out to be 658 s.

`Cc1ccc(CSc2nc(CC(=O)NCc3cccnc3)cs2)cc1` displayed an RP-LC retention time of 605 s.

`CNC(=O)C1CCN(c2nc3ccc(-c4ccc(F)cc4)nc3s2)CC1` showed an RP-LC retention time of 824 s. With `CCCc1c(C)nc2ncnn2c1N1CCN(c2ccccn2)CC1`, the RP-LC retention time amounted to 583 s. `CCOc1ccc(NC(=O)N2CCc3[nH]cnc3C2c2ccncc2)cc1` (stereo not drawn) had an RP-LC retention time of 561 s. `CCc1ccc(CNC(=O)c2csc(C(=O)NC)n2)cc1` displayed an RP-LC retention time of 808 s. As to `Cc1ccc(N(C)C(=O)C2CCN(S(=O)(=O)c3ccc4c(c3)NC(=O)CO4)CC2)cc1`, the RP-LC retention time came to 780 s. As for `CCCn1cc(C(=O)NCCCN(C)C)c(S(=O)(=O)N2CCN(c3cccc(Cl)c3)CC2)n1`, the RP-LC retention time amounted to 758 s. For the compound `c1ccc(-c2nc3ccccn3c2Nc2ccc3c(c2)OCCO3)cc1`, the RP-LC retention time stood at 665 s. In the case of `Cc1ccc(Cl)cc1NC(=O)C1CCN(S(C)(=O)=O)c2ccccc2O1` (stereo not drawn), the RP-LC retention time worked out at 954 s. As for `CCCN1CCN(c2cc(C(=O)O)c3cc(NS(=O)(=O)c4ccc(F)c(F)c4)ccc3n2)CC1`, the figure is 651 s; as for `O=C(C1CCN(c2cnc3nccnc3c2)CC1)N1CCN(c2cccc(Cl)c2)CC1`, 833 s; as for `CONC(=O)Cc1csc(Nc2cc(C)ccn2)n1`, 526 s. As for `CC(C(=O)NC1CCN(Cc2ccccc2)CC1)n1c(=O)c(C(F)(F)F)nc2ccccc21` (stereo not drawn), the RP-LC retention time was 731 s.

With `Cc1cc(C)cc(NC(=O)c2cnc(-c3ccccc3)nc2-c2ccncc2)c1`, the RP-LC retention time is 988 s. Turning to `Cc1oc(-c2[nH]ncc2C(=O)N2CCCC2)cc1S(=O)(=O)NC1CC1`, the RP-LC retention time worked out at 620 s. `Cc1nn(C)c(C)c1CCCN(C)C(=O)c1cccc(N2CCNC(c3ccccc3)C2)n1` (stereo not drawn): the RP-LC retention time is 558 s.

The compound `Cc1noc(-c2ccc(-n3cnc(C(=O)NC4CCCCC4)c3)nc2)n1` returned an RP-LC retention time of 883 s. Consider `Cc1cccc(CNC(=O)c2cc(C(C)C)n3nccc3n2)c1`, for which the RP-LC retention time turned out to be 1310 s.

On to `O=C(Nc1ccc2c(c1)OCO2)c1nnc(C2CCCN2C(=O)NCc2ccc(F)cc2)s1` (stereo not drawn), for which the RP-LC retention time is 854 s. As for `Cc1cccc(-n2c(=O)c3sccc3n(Cc3nc(-c4ccc(F)c(Cl)c4)no3)c2=O)c1`, the figure is 1100 s; as for `Cc1cc2c(cc1CNC(=O)c1cc3c(cc1C)OCCCO3)OCCO2`, 846 s; as for `O=C(CCCSc1ccc(NC(=O)c2ccc(F)cc2)nn1)Nc1nccs1`, 745 s. For `COc1ccc(NC(=O)c2noc3c2CCCC3)cc1OC`, the RP-LC retention time came out at 842 s. Compound `CC(C)CC(=O)NC(Cc1ccccc1)c1nnc(N2CCN(C)CC2)o1` (stereo not drawn) showed an RP-LC retention time of 621 s.

The record behind these values is the METLIN SMRT retention time set (Domingo-Almenara et al. 2019).
